Reference: the NIST ThermoML archive (doi:10.1016/j.jct.2012.06.020)

Assay: mn = molality of the nth substance listed, in mol/kg
Settings: 101 kPa, Liquid; for mass density: Vibrating tube method; for speed of sound: OPTIME 1.0 from OPTEL

O=S(=O)([O-])C(F)(F)F.O=S(=O)([O-])C(F)(F)F.O=S(=O)([O-])C(F)(F)F.[Gd+3] [gadolinium (III) trifluoromethanesulfonate] + C[S+](C)[O-]
Settings	mass density, 293.15 K [kg/m3]	mass density, 298.15 K [kg/m3]	mass density, 303.15 K [kg/m3]	mass density, 313.15 K [kg/m3]	mass density, 323.15 K [kg/m3]	mass density, 333.15 K [kg/m3]	speed of sound, 298.15 K [m/s]
m1 = 0.01963	1108.73	1103.71	1098.7	1088.67	1078.66	1068.64	1481.8
m1 = 0.02663	1111.79	1106.78	1101.77	1091.75	1081.75	1071.74	1481
m1 = 0.03818	1116.88	1111.88	1106.87	1096.87	1086.88	1076.89	1479.6
m1 = 0.04655	1120.6	1115.6	1110.6	1100.61	1090.63	1080.64	1478.6
m1 = 0.05549	1124.6	1119.6	1114.6	1104.62	1094.65	1084.68	1477.5
m1 = 0.06913	1130.74	1125.75	1120.76	1110.8	1100.84	1090.89	1475.9
m1 = 0.08877	1139.72	1134.74	1129.76	1119.82	1109.89	1099.96	1473.6
m1 = 0.1071	1148.2	1143.23	1138.26	1128.34	1118.43	1108.52	1471.5
m1 = 0.124	1156.16	1151.2	1146.24	1136.34	1126.45	1116.58	1469.4
m1 = 0.1457	1166.53	1161.57	1156.62	1146.75	1136.88	1127.04	1467
m1 = 0.1629	1174.88	1169.93	1165	1155.14	1145.31	1135.48	1465

O=S(=O)([O-])C(F)(F)F.O=S(=O)([O-])C(F)(F)F.O=S(=O)([O-])C(F)(F)F.[La+3] [lanthanum(III) trifluoromethanesulfonate] + C[S+](C)[O-]
Settings	mass density, 293.15 K [kg/m3]	mass density, 298.15 K [kg/m3]	mass density, 303.15 K [kg/m3]	mass density, 313.15 K [kg/m3]	mass density, 323.15 K [kg/m3]	mass density, 333.15 K [kg/m3]	speed of sound, 298.15 K [m/s]
m1 = 0.01831	1107.63	1102.61	1097.59	1087.57	1077.55	1067.52	1482.3
m1 = 0.0248	1110.28	1105.26	1100.24	1090.22	1080.21	1070.19	1481.7
m1 = 0.03536	1114.62	1109.6	1104.59	1094.58	1084.58	1074.57	1480.7
m1 = 0.04296	1117.75	1112.74	1107.73	1097.73	1087.73	1077.74	1479.9
m1 = 0.05181	1121.43	1116.42	1111.41	1101.41	1091.43	1081.44	1479
m1 = 0.0646	1126.78	1121.77	1116.77	1106.78	1096.81	1086.84	1477.8
m1 = 0.08309	1134.62	1129.61	1124.62	1114.64	1104.68	1094.74	1476
m1 = 0.1003	1142	1136.99	1132	1122.04	1112.1	1102.16	1474.3
m1 = 0.1156	1148.66	1143.66	1138.68	1128.72	1118.8	1108.9	1472.9
m1 = 0.1362	1157.7	1152.71	1147.73	1137.79	1127.88	1117.99	1470.8
m1 = 0.1528	1165.12	1160.13	1155.15	1145.24	1135.35	1125.49	1469.3

O=S(=O)([O-])C(F)(F)F.O=S(=O)([O-])C(F)(F)F.O=S(=O)([O-])C(F)(F)F.[Lu+3] [lutetium(III) trifluoromethanesulfonate] + C[S+](C)[O-]
Settings	mass density, 293.15 K [kg/m3]	mass density, 298.15 K [kg/m3]	mass density, 303.15 K [kg/m3]	mass density, 313.15 K [kg/m3]	mass density, 323.15 K [kg/m3]	mass density, 333.15 K [kg/m3]	speed of sound, 298.15 K [m/s]
m1 = 0.01878	1108.65	1103.62	1098.6	1088.57	1078.53	1068.49	–
m1 = 0.02625	1112.04	1107.02	1101.99	1091.95	1081.91	1071.88	–
m1 = 0.03372	1115.44	1110.42	1105.39	1095.36	1085.32	1075.28	–
m1 = 0.03373	–	–	–	–	–	–	1479.8
m1 = 0.04075	1118.67	1113.64	1108.62	1098.58	1088.54	1078.51	1478.9
m1 = 0.05063	1123.23	1118.2	1113.17	1103.14	1093.11	1083.07	1477.6
m1 = 0.06739	1131.05	1126.03	1121	1110.97	1100.94	1090.91	1475.5
m1 = 0.0825	1138.19	1133.17	1128.14	1118.09	1108.05	1098.05	1473.6
m1 = 0.09757	1145.41	1140.38	1135.36	1125.31	1115.27	1105.25	1471.7
m1 = 0.1139	1153.31	1148.28	1143.26	1133.2	1123.17	1113.14	1469.6
m1 = 0.1294	1160.93	1155.9	1150.87	1140.81	1130.77	1120.74	1467.6
m1 = 0.145	1168.67	1163.64	1158.61	1148.56	1138.52	1128.5	1465.7
m1 = 0.1599	1176.2	1171.16	1166.13	1156.07	1146.04	1136.01	1463.9
